Laboratory results: ChEMBL document CHEMBL1158810, “Efficiency of foam fractionation for the enrichment of nonpolar compounds from aqueous extracts of plant materials” (J Nat Prod, 2005)

Assay: Octanol-water partition coefficient, log POW of the compound
Format: physicochemical
Conditions: not given

logP | Structure (SMILES)
1.15 | COc1cc(/C=C/C(=O)CC(=O)/C=C/c2ccc(O)c(OC)c2)ccc1O [CURCUMIN]

Same assay, conditions: read-out: logP

logP | Structure (SMILES)
0.67 | Oc1cc(O)c2c(c1)O[C@H](c1ccc(O)c(O)c1)[C@H](O)C2 [(-)-EPICATECHIN]
1 | COc1cc(/C=C/C(O)=C/C(=O)/C=C/c2ccc(O)cc2)ccc1O [DEMETHOXYCURCUMIN]
0.85 | O=C(/C=C/c1ccc(O)cc1)CC(=O)/C=C/c1ccc(O)cc1 [BISDEMETHOXYCURCUMIN]
0.53 | Oc1cc(O)c2c(c1)O[C@H](c1ccc(O)c(O)c1)[C@@H](O)C2 [CIANIDANOL]

Further lines, the compound ahead of its results:

Structure (SMILES) | logP
C[C@@H]1O[C@@H](O[C@H]2[C@H](Oc3cc(O)c4c(c3)O[C@H](c3ccc(O)cc3)CC4=O)O[C@H](CO)[C@@H](O)[C@@H]2O)[C@H](O)[C@H](O)[C@H]1O [NARINGIN] | -0.15
O=C(O[C@@H]1Cc2c(O)cc(O)cc2O[C@@H]1c1cc(O)c(O)c(O)c1)c1cc(O)c(O)c(O)c1 [EPIGALOCATECHIN GALLATE] | 0.09
Oc1cc(O)c2c(c1)O[C@H](c1cc(O)c(O)c(O)c1)[C@H](O)C2 [EPIGALLOCATECHIN] | 0.13
CC(C)=CCC1=C(O)C(C(=O)CC(C)C)=C(O)[C@](O)(CC=C(C)C)C1=O | 3.01
CC(C)=CCC1=C(O)C(C(=O)C(C)C)=C(O)[C@](O)(CC=C(C)C)C1=O | 2.92
CC1=C(/C=C/C(C)=C/C=C/C(C)=C/C=C/C=C(C)/C=C/C=C(C)/C=C/C2=C(C)CCCC2(C)C)C(C)(C)CCC1 [BETA CAROTENE] | 4.19
O=C(O[C@@H]1Cc2c(O)cc(O)cc2O[C@H]1c1cc(O)c(O)c(O)c1)c1cc(O)c(O)c(O)c1 [GALLOCATECHIN GALLATE] | 0.12
CC1=C[C@H](O)CC(C)(C)[C@H]1/C=C/C(C)=C/C=C/C(C)=C/C=C/C=C(C)/C=C/C=C(C)/C=C/C1=C(C)C[C@@H](O)CC1(C)C [LUTEIN] | 3.89
O=C(O[C@@H]1Cc2c(O)cc(O)cc2O[C@@H]1c1ccc(O)c(O)c1)c1cc(O)c(O)c(O)c1 [EPICATECHIN GALLATE] | 0.07
COc1ccc([C@@H]2CC(=O)c3c(O)cc(O[C@@H]4O[C@H](CO[C@@H]5O[C@@H](C)[C@H](O)[C@@H](O)[C@H]5O)[C@@H](O)[C@H](O)[C@H]4O)cc3O2)cc1O [HESPERIDIN] | -0.21
